Laboratory results: PubChem BioAssay AID328 (DTP/NCI, 2004)
Where “and” joins values, the source holds several entries; their conditions need not be identical. Equal values may be shown once. Inconclusive results and toxic doses are left out.

Tested on: BDF1 mice, P388 leukemia ip, median survival T/C
Test: NCI In Vivo Anticancer Drug Screen. Data for tumor model P388 Leukemia (intraperitoneal) in B6D2F1 (BDF1) mice
Settings: endpoint: median survival time, higher = longer survival
How it was run: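 Vehicle-dosed animals serve as the reference; survival of compound-dosed, tumour-implanted mice is divided by it.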

[1] = dose: 100.0 mg/kg/injection, schedule: Q01DX001 (ip), vehicle: saline with Tween-80
[2] = dose: 200.0 mg/kg/injection, schedule: Q01DX001 (ip), vehicle: saline with Tween-80
[3] = dose: 400.0 mg/kg/injection, schedule: Q01DX001 (ip), vehicle: saline with Tween-80
[4] = dose: 25.0 mg/kg/injection, schedule: Q01DX009 (ip), vehicle: water
[5] = dose: 100.0 mg/kg/injection, schedule: Q01DX009 (ip), vehicle: water
[6] = dose: 25.0 mg/kg/injection, schedule: Q01DX009 (ip), vehicle: saline with Tween-80
[7] = dose: 50.0 mg/kg/injection, schedule: Q01DX009 (ip), vehicle: saline with Tween-80
[8] = dose: 100.0 mg/kg/injection, schedule: Q01DX009 (ip), vehicle: saline with Tween-80
[9] = dose: 200.0 mg/kg/injection, schedule: Q01DX009 (ip), vehicle: saline with Tween-80
[10] = dose: 50.0 mg/kg/injection, schedule: Q01DX009 (ip), vehicle: Klucel (hydroxypropylcellulose) (HPC)
[11] = dose: 100.0 mg/kg/injection, schedule: Q01DX009 (ip), vehicle: Klucel (hydroxypropylcellulose) (HPC)
[12] = dose: 200.0 mg/kg/injection, schedule: Q01DX009 (ip), vehicle: Klucel (hydroxypropylcellulose) (HPC)
[13] = dose: 50.0 mg/kg/injection, schedule: Q01DX009 (ip), vehicle: saline
[14] = dose: 100.0 mg/kg/injection, schedule: Q04DX003 (ip), vehicle: saline with Tween-80
[15] = dose: 200.0 mg/kg/injection, schedule: Q04DX003 (ip), vehicle: saline with Tween-80
[16] = dose: 400.0 mg/kg/injection, schedule: Q04DX003 (ip), vehicle: saline with Tween-80
[17] = dose: 100.0 mg/kg/injection, schedule: Q01DX001 (ip), vehicle: Klucel (hydroxypropylcellulose) (HPC)
[18] = dose: 100.0 mg/kg/injection, schedule: Q01DX009 (ip), vehicle: saline
[19] = dose: 100.0 mg/kg/injection, schedule: Q04DX003 (ip), vehicle: saline
[20] = dose: 200.0 mg/kg/injection, schedule: Q01DX001 (ip), vehicle: Klucel (hydroxypropylcellulose) (HPC)
[21] = dose: 200.0 mg/kg/injection, schedule: Q04DX003 (ip), vehicle: saline

## Cc1cccc(-n2nc3c(=O)n(C)c(=O)n(C)c3nc2=O)c1
[1]
  T/C: 88 % of control
[2]
  T/C: 96 % of control
[3]
  T/C: 92 % of control

## COc1ccc(N2c3ccccc3-c3cc[nH]c(=O)c3[C@H]2O)cc1OC
dose: 37.5 mg/kg/injection, schedule: Q01DX009 (ip), vehicle: Klucel (hydroxypropylcellulose) (HPC)
  T/C: 119 % of control
dose: 75.0 mg/kg/injection, schedule: Q01DX006 (ip), vehicle: Klucel (hydroxypropylcellulose) (HPC)
  T/C: 114 % of control
dose: 75.0 mg/kg/injection, schedule: Q01DX009 (ip), vehicle: Klucel (hydroxypropylcellulose) (HPC)
  T/C: 106 % of control
dose: 150.0 mg/kg/injection, schedule: Q01DX009 (ip), vehicle: Klucel (hydroxypropylcellulose) (HPC)
  T/C: 163 % of control

## O=C(O)c1c[nH]c2nccnc12
[4]
  T/C: 98 % of control
dose: 25.0 mg/kg/injection, schedule: Q04DX003 (ip), vehicle: water
  T/C: 103 % of control
dose: 50.0 mg/kg/injection, schedule: Q04DX003 (ip), vehicle: water
  T/C: 99 % of control
[5]
  T/C: 88 % of control
dose: 100.0 mg/kg/injection, schedule: Q04DX003 (ip), vehicle: water
  T/C: 103 % of control
dose: 200.0 mg/kg/injection, schedule: Q04DX003 (ip), vehicle: water
  T/C: 103 % of control
dose: 400.0 mg/kg/injection, schedule: Q04DX003 (ip), vehicle: water
  T/C: 92 % of control

## COc1cc2c(cc1OC)C(c1ccc(N=Cc3ccc(N(C)C)cc3)cc1)N(C(=S)Nc1cc(Cl)ccc1Cl)CC2 (stereo not given)
[6]
  T/C: 97 % of control
[7]
  T/C: 93 % of control and 97 % of control
[8]
  T/C: 95 % of control
[9]
  T/C: 89 % of control

## C=C=[CH][Sn]([c]1ccccc1)([c]1ccccc1)[c]1ccccc1
dose: 6.25 mg/kg/injection, schedule: Q01DX009 (ip), vehicle: Klucel (hydroxypropylcellulose) (HPC)
  T/C: 92 % of control and 108 % of control
dose: 12.5 mg/kg/injection, schedule: Q01DX009 (ip), vehicle: Klucel (hydroxypropylcellulose) (HPC)
  T/C: 96 % of control and 104 % of control
dose: 25.0 mg/kg/injection, schedule: Q01DX009 (ip), vehicle: Klucel (hydroxypropylcellulose) (HPC)
  T/C: 107 % of control and 112 % of control and 115 % of control

## O=C1C(Cl)CCCCC1Cl (stereo not given)
[10]
  T/C: 100 % of control
[11]
  T/C: 100 % of control
[12]
  T/C: 115 % of control

## C=C1C(=O)OC2CC(C)C3(O)CCC(C)(CC(OC(=O)C(C)C)C12)O3 (stereo not given)
dose: 40.0 mg/kg/injection, schedule: Q01DX009 (ip), vehicle: saline
  T/C: 100 % of control
[10]
  T/C: 117 % of control
[11]
  T/C: 117 % of control and 118 % of control

## COc1cc2cc3c4cc(OC)c(OC)cc4cc[n+]3c(CCC(=O)O)c2cc1OC (tested in a mixture with another compound)
[11]
  T/C: 92 % of control
[12]
  T/C: 119 % of control

## Cc1csc2ccccc12
dose: 12.5 mg/kg/injection, schedule: Q01DX009 (ip), vehicle: saline with Tween-80
  T/C: 111 % of control
[6]
  T/C: 102 % of control
[7]
  T/C: 119 % of control

## Cc1ccc(OCC(O)CN2CCN(c3ccc(Cl)cc3)CC2)cc1 (stereo not given)
dose: 100.0 mg/kg/injection, schedule: Q04DX003 (ip), vehicle: saline sonified
  T/C: 100 % of control
dose: 200.0 mg/kg/injection, schedule: Q04DX003 (ip), vehicle: saline sonified
  T/C: 100 % of control
dose: 400.0 mg/kg/injection, schedule: Q04DX003 (ip), vehicle: saline sonified
  T/C: 100 % of control

## N=C(N)c1ccc(N=C(N)Nc2ccc(C(=N)N)cc2)cc1
[13]
  T/C: 118 % of control

## CCOC(=O)c1c[nH]c(=O)c([N+](=O)[O-])c1O
[8]
  T/C: 96 % of control
[14]
  T/C: 108 % of control
[15]
  T/C: 95 % of control
[16]
  T/C: 112 % of control

## N=C(N)SCc1c2ccccc2c(CSC(=N)N)c2ccccc12
dose: 2.5 mg/kg/injection, schedule: Q01DX010 (ip), vehicle: saline
  T/C: 183 % of control
dose: 5.0 mg/kg/injection, schedule: Q01DX010 (ip), vehicle: saline
  T/C: 220 % of control
dose: 10.0 mg/kg/injection, schedule: Q01DX010 (ip), vehicle: saline
  T/C: 235 % of control and 195 % of control
dose: 20.0 mg/kg/injection, schedule: Q01DX010 (ip), vehicle: saline
  T/C: 208 % of control and 215 % of control

## COc1ccc(/C=C(/C#N)C(N)=O)cc1Br
[17]
  T/C: 100 % of control
[18]
  T/C: 100 % of control
[19]
  T/C: 100 % of control
[20]
  T/C: 113 % of control
dose: 200.0 mg/kg/injection, schedule: Q01DX009 (ip), vehicle: saline
  T/C: 95 % of control
[21]
  T/C: 120 % of control
dose: 400.0 mg/kg/injection, schedule: Q01DX001 (ip), vehicle: Klucel (hydroxypropylcellulose) (HPC)
  T/C: 109 % of control
dose: 400.0 mg/kg/injection, schedule: Q01DX009 (ip), vehicle: saline
  T/C: 90 % of control
dose: 400.0 mg/kg/injection, schedule: Q04DX003 (ip), vehicle: saline
  T/C: 120 % of control

## Cn1ccc2nncn2c1=O
[1]
  T/C: 115 % of control
[2]
  T/C: 95 % of control
[3]
  T/C: 98 % of control

## Fc1ccccc1C1=NCC(=S)N(CC(F)(F)F)c2ccc(Cl)cc21
[7]
  T/C: 100 % of control
[8]
  T/C: 96 % of control

## CCN(CC)C(=O)c1ccncc1
[19]
  T/C: 109 % of control
[21]
  T/C: 100 % of control

## O=C1/C(=C/c2ccco2)CCC2CC3(CCC12)OCCO3 (stereo not given)
dose: 100.0 mg/kg/injection, schedule: Q04DX003 (ip), vehicle: other
  T/C: 108 % of control
dose: 200.0 mg/kg/injection, schedule: Q04DX003 (ip), vehicle: other
  T/C: 91 % of control
dose: 400.0 mg/kg/injection, schedule: Q04DX003 (ip), vehicle: other
  T/C: 108 % of control

## CC(=O)C(C(C)=O)c1cc(NS(=O)(=O)c2ccccc2)ccc1O
[1]
  T/C: 104 % of control
[2]
  T/C: 100 % of control
[3]
  T/C: 95 % of control

## NC(=S)N/N=C\c1c[nH]c2nccnc12
[4]
  T/C: 106 % of control
dose: 50.0 mg/kg/injection, schedule: Q01DX009 (ip), vehicle: water
  T/C: 92 % of control
[5]
  T/C: 100 % of control
dose: 400.0 mg/kg/injection, schedule: Q01DX009 (ip), vehicle: water
  T/C: 86 % of control

## CCCCCCc1c(C(OC)OC)[nH]c(=S)[nH]c1=O
[11]
  T/C: 96 % of control
[12]
  T/C: 89 % of control

## Cc1ccc(C(=O)NCCCOc2ccc([N+](=O)[O-])cc2Cl)cc1S(=O)(=O)F
[7]
  T/C: 98 % of control
[8]
  T/C: 114 % of control
[14]
  T/C: 99 % of control
[9]
  T/C: 98 % of control
[15]
  T/C: 99 % of control
dose: 400.0 mg/kg/injection, schedule: Q01DX009 (ip), vehicle: saline with Tween-80
  T/C: 107 % of control
[16]
  T/C: 90 % of control

## CCOC(=O)c1c(N)[nH]c(SSc2[nH]c(N)c(C(=O)OCC)c2C(=O)OCC)c1C(=O)OCC
[6]
  T/C: 92 % of control
[7]
  T/C: 108 % of control
dose: 50.0 mg/kg/injection, schedule: Q04DX003 (ip), vehicle: saline with Tween-80
  T/C: 109 % of control
[14]
  T/C: 109 % of control
[15]
  T/C: 114 % of control
[16]
  T/C: 109 % of control

## NC1CSSC1
dose: 0.39 mg/kg/injection, schedule: Q01DX009 (ip), vehicle: water
  T/C: 93 % of control and 108 % of control
dose: 1.56 mg/kg/injection, schedule: Q04DX003 (ip), vehicle: water
  T/C: 97 % of control
dose: 3.12 mg/kg/injection, schedule: Q04DX003 (ip), vehicle: water
  T/C: 106 % of control
dose: 6.25 mg/kg/injection, schedule: Q01DX009 (ip), vehicle: water
  T/C: 91 % of control and 94 % of control and 96 % of control
dose: 6.25 mg/kg/injection, schedule: Q04DX003 (ip), vehicle: water
  T/C: 105 % of control

## COc1cc(NC(C)CCCN)c2nccc(C)c2c1 (stereo not given)
dose: 12.5 mg/kg/injection, schedule: Q01DX009 (ip), vehicle: saline
  T/C: 101 % of control
dose: 25.0 mg/kg/injection, schedule: Q01DX009 (ip), vehicle: saline
  T/C: 101 % of control
[13]
  T/C: 90 % of control and 107 % of control
[18]
  T/C: 88 % of control

## CN(C)NC1OC(C(O)S(=O)(=O)O)C(OCc2ccccc2)C(OCc2ccccc2)C1O (stereo not given)
[7]
  T/C: 109 % of control
[8]
  T/C: 98 % of control
[9]
  T/C: 94 % of control

## Cc1[nH]c(=S)[nH]c(=O)c1CN(CCO)CCO
dose: 50.0 mg/kg/injection, schedule: Q01DX001 (ip), vehicle: Klucel (hydroxypropylcellulose) (HPC)
  T/C: 96 % of control
[17]
  T/C: 96 % of control
[20]
  T/C: 96 % of control
